PMC9964503, “Effects of Apigenin on Pharmacokinetics of Dasatinib and Probable Interaction Mechanism” (Molecules, 2023)
Blank lines part the entries; values can stand above or below the molecule they belong to.

How the values were obtained:
BCRP/ABCG2 = experiment: Hepatic and intestinal BCRP/ABCG2 protein expression (immunoblot); format: in vivo, rats
Protocol: (§1) The animals were categorized into four groups (n = 6) and fasted for 12 h before the experiment. […] orally administered with normal saline for 7 days and Group II was orally administered DAS (25 mg/kg) on the 7th day. Group III was co-administered DAS with APG for 7 days and DAS (25 mg/kg p.o.) on the 7th day, 2 h after APG 40 mg/kg administration, and Group IV was administered with APG 40 mg/kg for 7 days. The blood was collected from the tail vein at various time points after DAS administration and subjected to centrifugation at 5000× g for 10 min to obtain plasma for DAS quantification using ultra pressure liquid chromatography with mass. At the end of the experiment, all animals were euthanized using carbon dioxide, and liver and intestine tissues were harvested and for Western blotting.
(§2) A PierceTM BCA Protein Assay Kit (Thermo Fisher Scientific) was used to extract the total protein from the hepatic and intestinal tissues by bicinchoninic acid technique. Immunoblots were executed as per the methods of Towbin et al. (1979) with slight modification. Briefly, 10% SDS polyacrylamide gels were used to electrophorese 25 μg of hepatic and intestinal epithelial proteins. These proteins were then transferred to activated PVDF membranes and blocked with 4% skim milk and BSA in TBST. After that, membranes were treated with antibodies for CYP3A2 isozymes, active transporters P-glycoprotein/MDR1, BCRP/ABCG2, and β-actin protein expression for an overnight period (4 °C). The membrane strips were incubated with the suitable secondary antibodies for 2 h after repeated washing steps with 1% TBST and TBS (room temperature). The membrane strips were then washed four times with TBST for five minutes each time. Bands were developed using Luminata™ Western Chemiluminescent HRP Substrates (Millipore), followed by densitometric evaluation of the immunoblots.

CYP3A2 = experiment: Hepatic and intestinal CYP3A2 protein expression (immunoblot); format: in vivo, rats
Protocol: as §1, §2

Pgp/MDR1 = experiment: Hepatic and intestinal Pgp/MDR1 protein expression (immunoblot); format: in vivo, rats
Protocol: as §1, §2

[1] = Pharmacokinetics of oral DAS in rats with or without APG pretreatment (UPLC-MS/MS, non-compartmental); format: in vivo; settings: DAS in rat plasma, DAS 25 mg/kg p.o., alone or after APG 40 mg/kg p.o. for 7 days, mean ± SD
Protocol: The Central Animal House facility of College of Pharmacy, King Saud University’s, Riyadh, Saudi Arabia, provided 24 healthy adult male Wistar rats (weighing 211–223 g), and the experiment was authorized by the Animal Ethics Committee of the College of Pharmacy, King Saud University (KSU-SE-21-58). All animals were retained in polypropylene cages: 6 animals were caged (n = 6) per cage with a 12-h light/dark cycle, at 25 °C in humane conditions with free access to food and water and adapted to the living conditions one week prior to experiment
as §1
Using UHPLC-MS/MS, DAS concentrations in rat plasma samples were determined. A mixture of DAS and IBR (internal standard) was separated on an Acquity BEH C18 column, and both compounds were eluted at a flow rate of 0.25 mL/min from a mobile phase consisting of acetonitrile, 0.1% formic acid, and 20mM ammonium acetate (95:5). The entire duration of the study was about 2.5 min. The auto-sampler was kept at 10 °C, while the column oven was kept at a constant 40 °C. Electrospray ionization was used to ionize samples in a positive direction. […] Multiple reaction monitoring (MRM) mode detection and quantitation of analyte (DAS) and IS (IBR) employed the precursor to product ion transition of 488.06 and gt; 401.1 and 441.16 and gt; 84.04, respectively. Capillary voltage was 3.4 kV, source temperature was 150 °C, and desolvation temperature was 350 °C for optimum sample ionization using MS/MS. A flow rate of 600 L/h of nitrogen gas was utilized for the desolvation process, whereas a flow rate of 0.18 mL/min of argon gas was used for the collision process. The analyte and IS cone voltages were 46 V and 48 V, and the collision energy was 28 eV and 40 eV, respectively. Precision and accuracy were partially confirmed for the assay using the “US Food and Drug Administration 2018 guideline for bioanalytical technique validation,” and found to be within acceptable ranges of 15% both intra- and inter-day. The samples were acquired using Masslynx 4.1 SCN 805, and then processed using TargetLynks. After making a few modifications to a previously reported study, it was put to use.
A plasma sample of 150 µL was aliquoted into an Eppendorf tube, along with 20 µL of a spiked internal standard (250 ng/mL), and 1 mL of ethyl acetate was also added for the extraction phase. For 10 min at 4 °C and 10,500 rpm, centrifuged samples were shaken for 15 min after being vortexed. Finally, 800 µL of the organic upper layer were transferred to an Eppendorf tube and dried in a sample concentrator at room temperature. Following reconstitution with 150 µL of acetonitrile, the dried residue was transported to UHPLC-MS/MS for 5 µL of analysis.
PK Solver software was employed to calculate the pharmacokinetic parameters using non-compartmental model. The calculated parameters were as follows: half-life (T1/2), elimination rate constant (Kel), time to maximum concentration (Tmax), the maximum concentration (Cmax), area under concentration time curve (AUC), the area under the moment curve (AUMC); the volume of distribution (Vd), the mean residence time (MRT), and clearance (Cl) were examined.

[2] = intestine, APG 40 mg/kg only pretreatment vs normal rats
[3] = liver, APG 40 mg/kg only pretreatment vs normal rats
[4] = intestine, DAS peroral vs normal rats
[5] = liver, DAS peroral vs normal rats

inhibition of intestinal CYP3A2 protein expression (CYP3A2; [2]): 90.97%
inhibition of hepatic CYP3A2 protein expression (CYP3A2; [3]): 87.24%
Structure (SMILES): O=c1cc(-c2ccc(O)cc2)oc2cc(O)cc(O)c12 [APG, 4′,5,7-trihydroxyflavone]
inhibition of intestinal BCRP/ABCG2 protein expression (BCRP/ABCG2; [2]): 91.50%
inhibition of hepatic BCRP/ABCG2 protein expression (BCRP/ABCG2; [3]): 91.05%
inhibition of intestinal Pgp/MDR1 protein expression (Pgp/MDR1; [2]): 87.84%
inhibition of hepatic Pgp/MDR1 protein expression (Pgp/MDR1; [3]): 90.67%

Structure (SMILES): Cc1nc(Nc2ncc(C(=O)Nc3c(C)cccc3Cl)s2)cc(N2CCN(CCO)CC2)n1 [DAS, Dasatinib]
induction of intestinal BCPR/ABCG2 protein expression (BCRP/ABCG2; [4]): 95.66%
induction of hepatic BCPR/ABCG2 protein expression (BCRP/ABCG2; [5]): 92.55%
increase of intestinal CYP3A2 protein expression (CYP3A2; intestine, DAS administered rats vs normal control rats): 79.13%
AUC0-t [1]: 1635.84 ± 45.29 ng·h/mL
AUMC0-inf_obs [1]: 16200.10 ± 1656.57 ng/mL × h^2
Cl [1]: 0.012 ± 0.0005 (mg/kg)/(ng/mL)/h
Cmax [1]: 263.06 ± 12.33 ng/mL
Vd [1]: 0.087 ± 0.005 (mg/kg)/(ng/mL)
Tmax ([1]; male, Wistar, po): 1 h
half-life ([1]; male, Wistar, po): 4.97 ± 0.48 h
k el ([1]; male, Wistar, po): 3.89e-05 s⁻¹
AUC(0-inf) ([1]; male, Wistar, po, read-out: AUC0-inf_obs): 2060 ± 97 ng·h/mL
MRT inf ([1]; male, Wistar, po, read-out: MRT 0-inf_obs): 7.84 ± 0.46 h
induction of intestinal Pgp/MDR1 protein expression (Pgp/MDR1; [4]): 91.65%
induction of hepatic Pgp/MDR1 protein expression (Pgp/MDR1; [5]): 93.08%
